# In ChEMBL document CHEMBL3044884, “Effect of 6-methoxybenzoxazolin-2-one (MBOA) on the reproduction rate of the grain aphid (Sitobion avenae F.)” (2006):
# Tests used:
# Type in all cases: functional
# [1] = system: Sitobion avenae; experiment: Insecticidal activity against 1 to 3 day old Sitobion avenae apterous virginoparous nymphs raised on artificial diet exposed to compound at 0.3 mM assessed as intrinsic reproduction rate of increase measured after 4 weeks (reference value: 0.00162 intrinsic reproduction rate of increase)
# [2] = system: Sitobion avenae; experiment: Insecticidal activity against 1 to 3 day old Sitobion avenae apterous virginoparous nymphs raised on artificial diet exposed to compound at 8 mM assessed as intrinsic reproduction rate of increase measured after 4 weeks (reference value: 0.00162 intrinsic reproduction rate of increase)
# [3] = system: Sitobion avenae; experiment: Insecticidal activity against 1 to 3 day old Sitobion avenae apterous virginoparous nymphs raised on artificial diet exposed to compound at 0.5 mM assessed as intrinsic reproduction rate of increase measured after 4 weeks (reference value: 0.00162 intrinsic reproduction rate of increase)
# [4] = system: Sitobion avenae; experiment: Insecticidal activity against 1 to 3 day old Sitobion avenae apterous virginoparous nymphs raised on artificial diet exposed to compound at 0.05 mM assessed as intrinsic reproduction rate of increase measured after 4 weeks (reference value: 0.00162 intrinsic reproduction rate of increase)
# [5] = system: Sitobion avenae; experiment: Insecticidal activity against 1 to 3 day old Sitobion avenae apterous virginoparous nymphs raised on artificial diet exposed to compound at 0.1 mM assessed as intrinsic reproduction rate of increase measured after 4 weeks (reference value: 0.00162 intrinsic reproduction rate of increase)
# [6] = system: Sitobion avenae; experiment: Insecticidal activity against 1 to 3 day old Sitobion avenae apterous virginoparous nymphs raised on artificial diet exposed to compound at 0.2 mM assessed as intrinsic reproduction rate of increase measured after 4 weeks (reference value: 0.00162 intrinsic reproduction rate of increase)
smiles,measurement,setting,value
COc1ccc2[nH]c(=O)oc2c1 [COIXOL],Activity,[1],0.00075
same,Activity,[2],0
same,Activity,[3],0.00048
same,Activity,[4],0.0015
same,Activity,[5],0.00296
same,Activity,[6],0.00139
